Reference: ChEMBL document CHEMBL1151066, “Inhibitors of MMP-1: an examination of P1 C gem-disubstitution in the N-carboxyalkylamine and glutaramide carboxylate series” (Bioorg Med Chem Lett, 1996)

What follows are molecules tested against T1, Interstitial collagenase (Homo sapiens, UniProt P03956) (assay: Inhibitory activity against Matrix Metallo Proteinase-1 (MMP-1)).
T1 sequence (P03956 whole entry): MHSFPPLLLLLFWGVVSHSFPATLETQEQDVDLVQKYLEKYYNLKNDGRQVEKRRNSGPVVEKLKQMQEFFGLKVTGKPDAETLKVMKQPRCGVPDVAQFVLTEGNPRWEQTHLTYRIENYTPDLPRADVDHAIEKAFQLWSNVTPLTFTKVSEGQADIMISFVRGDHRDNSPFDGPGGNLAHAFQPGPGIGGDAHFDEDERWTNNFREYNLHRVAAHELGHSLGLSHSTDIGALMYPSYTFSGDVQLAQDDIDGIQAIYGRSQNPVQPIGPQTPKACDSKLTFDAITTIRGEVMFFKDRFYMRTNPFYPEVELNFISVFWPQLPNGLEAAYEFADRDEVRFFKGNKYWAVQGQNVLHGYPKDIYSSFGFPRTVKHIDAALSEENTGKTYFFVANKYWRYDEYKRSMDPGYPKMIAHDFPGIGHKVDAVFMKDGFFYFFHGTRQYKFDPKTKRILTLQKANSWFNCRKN

Compared with `CNC(=O)[C@H](Cc1ccc(OC)cc1)NC(=O)C1(CC(CCN2C(=O)c3ccc(OC)cc3C2=O)C(=O)O)CCCCC1` (mixture of isomers), `CCCOc1ccc2c(c1)C(=O)N(CCC(CC1(C(=O)N[C@@H](Cc3ccc(OC)cc3)C(=O)NC)CCCCC1)C(=O)O)C2=O` (mixture of isomers) is 4.1-fold lower in IC50: 570 nM for the first, 140 nM for the second. The second is the more potent here.

First: CNC(=O)[C@H](Cc1ccc(OC)cc1)NC(=O)C1(CC(CCN2C(=O)c3cc4ccccc4cc3C2=O)C(=O)O)CCCC1 (stereo in doubt; form 2)
Second: CNC(=O)[C@H](Cc1ccc(OC)cc1)NC(=O)C1(CC(CCN2C(=O)c3cc4ccccc4cc3C2=O)C(=O)O)CCCCC1 (stereo in doubt; form 2)
The IC50 of the first is 1.9-fold higher: 260 nM for the first, 140 nM for the second.

Going from `CCC(CC1(C(=O)N[C@@H](Cc2ccc(OC)cc2)C(=O)NC)CCCCC1)C(=O)O` (mixture of isomers) to `CNC(=O)[C@H](Cc1ccc(OC)cc1)NC(=O)C1(CC(CCN2C(=O)c3ccccc3C2=O)C(=O)O)CCCCC1` (mixture of isomers), the IC50 falls from greater than 30000 nM to 3200 nM.

First: CNC(=O)[C@H](Cc1ccc(OC)cc1)NC(=O)C1(NC(CCN2C(=O)c3cc4ccccc4cc3C2=O)C(=O)O)CCCCC1 (stereo in doubt; form 2)
Second: CNC(=O)[C@H](Cc1ccc(OC)cc1)NC(=O)C1(CC(CCN2C(=O)c3cc4ccccc4cc3C2=O)C(=O)O)CCCCC1 (stereo in doubt; form 1)
The IC50 of the first is 2.4-fold higher: 90 nM for the first, 38 nM for the second. The second is the more potent here.

`CNC(=O)[C@H](Cc1ccc(OC)cc1)NC(=O)C1(CC(CCN2C(=O)c3cc4ccccc4cc3C2=O)C(=O)O)CCCC1` (stereo in doubt; form 1) and `CNC(=O)[C@H](Cc1ccc(OC)cc1)NC(=O)C1(NC(CCN2C(=O)c3cc4ccccc4cc3C2=O)C(=O)O)CCCCC1` (stereo in doubt; form 1) are within 1.5-fold of each other in IC50: 940 nM for the first, 970 nM for the second.

`CNC(=O)[C@H](Cc1ccc(OC)cc1)NC(=O)[C@H](CC(C)C)C[C@@H](CCN1C(=O)c2cc3ccccc3cc2C1=O)C(=O)O` and `CNC(=O)[C@H](Cc1ccc(OC)cc1)NC(=O)[C@H](CC(C)C)N[C@H](CCN1C(=O)c2cc3ccccc3cc2C1=O)C(=O)O` are the same in IC50: 23 nM for the first, 23 nM for the second.

Compared with `O=C(O)C(CCN1C(=O)c2cc3ccccc3cc2C1=O)CC1(C(=O)NCc2ccccc2)CCCCC1` (racemic), `O=C(O)C(CCN1C(=O)c2cc3ccccc3cc2C1=O)CC1(C(=O)NCCN2CCOCC2)CCCCC1` (racemic) is 4-fold higher in IC50: 3000 nM for the first, 12000 nM for the second. The first is the more potent here.

`CNC(=O)[C@H](Cc1ccccc1)NC(=O)[C@H](CC(C)C)N[C@H](CCN1C(=O)c2cc3ccccc3cc2C1=O)C(=O)O` showed an IC50 of 34 nM.
